Laboratory results as given in paper PMC3849007 (Journal of Experimental & Clinical Cancer Research : CR, 2013).
Counter-ions that a name gives are not always drawn. One block for each compound: values may come before it.

Key:
[1] = test system: h-Tel quadruplex (Q) DNA, 5'-biotin-d[AG3(T2AG3)3] (DNA, G4) AGGGTTAGGGTTAGGGTTAGGG; assay: surface plasmon resonance; conditions: 200 mM KCl; 10 mM HEPES, 3 mM EDTA, 0.01% P20, pH 7.4
[2] = test system: h-Tel 5'-d[AGGG(TTAGGG)3]-3' (DNA, G4) AGGGTTAGGGTTAGGGTTAGGG; assay: CD spectroscopy, induced anti-parallel structure; conditions: no significant K+; 298 K; 3.5 molar equivalents of ligand; band at 290 nm emerges
NCI60 panel = NCI60 panel growth inhibition; type: cell-based, human
[3] = target: T1, human recombinant β2 adrenergic receptor (Homo sapiens, UniProt P07550); assay: β2-adrenergic receptor binding assay (CHO expressing cells)
T1 construct: expressed in transfected cells; host or cells: CHO
Experimental: (§1) For hERG study, HEK293 cells were cultured (1–7 days) in DMEM/GlutaMax-1 + 10% FBS and were plated on collagen-coated dishes (about 2×10^4 cells/dish). The cell was held at -80 mV. A 50-millisecond pulse to -40 mV was delivered to measure the leaking currents, which were subtracted from the tail currents online. […] This paradigm was delivered once every 5 seconds to monitor the current amplitude. After the current amplitude stabilized, the test compound was delivered to the extracellular medium by a rapid solution changer perfusion system. During perfusion, the cell was repetitively stimulated with the protocol described above, and the current amplitude was continuously monitored. Data were acquired and analyzed by using pClamp (Axon Instruments), and Excel (Microsoft), and are reported as mean and individual values. The degree of inhibition (%) was obtained by measuring the tail current amplitude before and after drug superfusion (the difference current was normalized to control and multiplied by 100 to obtain the percent of inhibition). […] The concentration-response relationship of each compound was constructed from the percentage reductions of current amplitude by sequential concentrations. β2-adrenergic receptor CHO expressing cells were used for the receptor inhibition assay as described. The results are expressed as a percent of inhibition of control specific binding (100 - (measured specific binding/control specific binding) × 100)) obtained in the presence of the test compounds. The specific ligand binding to the receptors is defined as the difference between the total binding and the nonspecific binding determined in the presence of an excess of unlabelled ligand. All the in-vivo experiments were carried out at the Regina Elena Cancer Institute.
Inhibition of receptor was reported as inhibition of control specific binding (100 - (measured specific binding/control specific binding) × 100) obtained in the presence of the test compounds.

[4] = test system: h-Tel 5'-d[AGGG(TTAGGG)3]-3' (DNA, G4) AGGGTTAGGGTTAGGGTTAGGG; assay: CD melting at 290 nm; conditions: 110 mM K+ (100 mM KCl, potassium phosphate); 10 mM potassium phosphate, pH 7.0; 4 μM DNA, 3.5 mol equiv. ligand; Tm 89 ± 3
[5] = test system: Telomere dysfunction Induced Foci in BJ-EHLT fibroblasts; assay: TIF analysis (γH2AX/TRF1 co-localization); type: cell-based, human; conditions: 24 hrs
Experimental: (§2) Cells were fixed in 2% formaldehyde and permeabilized in 0.25% Triton X100 in PBS for 5 min at room temperature. For immunolabeling, cells were incubated with primary antibody, then washed in PBS and incubated with the secondary antibodies. The following primary antibodies were used: pAb and mAb anti-TRF1 (Abcam Ltd.; Cambridge UK); mAb (Upstate, Lake Placid, NY) and pAb anti-γH2AX (Abcam). The following secondary antibody were used: TRITC conjugated Goat anti Rabbit, FITC conjugated Goat anti Mouse (Jackson ImmunoResearch Europe Ltd., Suffolk, UK). Fluorescence signals were recorded by using a Leica DMIRE2 microscope equipped with a Leica DFC 350FX camera and elaborated by a Leica FW4000 deconvolution software (Leica, Solms, Germany). This system permits to focus single planes inside the cell generating 3D high-resolution images. For quantitative analysis of γH2AX positivity, 200 cells on triplicate slices were scored. For TIF’s analysis, in each nucleus a single plane was analyzed and at least 50 nuclei per sample were scored.

BJ-hTERT fibroblasts = assay: Proliferation assay, normal telomerised fibroblasts; type: cell-based, human; conditions: 0.5 μM, culture day 2 to 8
Experimental: (§3) BJ fibroblasts expressing hTERT (BJ-hTERT) or hTERT and SV40 early region (BJ-EHLT), were obtained as previously reported. Cells were grown in Dulbecco Modified Eagle Medium (D-MEM, Invitrogen Carlsbad, CA, USA) supplemented with 10% fetal calf serum, 2 mM L-glutamin and antibiotics.
(§4) 5 × 10^4 cells were seeded in 60-mm Petri plates (Nunc, MasciaBrunelli, Milano, Italy) and 24 h after plating, 0.5 μM of freshly dissolved compound was added to the culture medium. Cell counts (Coulter Counter, Kontron Instruments, Milano, Italy) and viability (trypan blue dye exclusion) were determined daily, from day 2 to day 8 of culture.

[6] = test system: h-Tel (anti-parallel) quadruplex; assay: CD thermal unfolding of h-Tel quadruplex; type: binding, human
Experimental: CD spectra were recorded on an Applied Photophysics Pi-Star-180 spectrophotometer (Applied Photophysics Ltd, Surrey, UK). The optical system was configured with a 75 W Xe lamp, circular light polarizer and end-mounted photomultiplier. The instrument had previously been calibrated with (D)-camphorsulfonic acid. Temperature was regulated using a Neslab RTE-300 circulating programmable water bath (Neslab Inc). CD spectra were recorded at 298 K in a 10 mm path length cell over a wavelength range of 215–345 nm in steps of either 1 0r 2 nm, with 3 nm entrance/exit slit widths: the number of counts was set to 10,000 with adaptive sampling set to 500,000. The spectra were corrected by subtracting the spectrum of the same buffer solution of 100 mM potassium chloride and 10 mM potassium phosphate at pH 7.0. Annealing and melting profiles were recorded using a thermoelectric temperature controller (Melcor) on 4 μM DNA samples with and without 3.5 mol.equiv. of ligands using 0.5 K temperature increments and a cooling or heating rate of 0.2 K/min over the temperature range 298-368 K.
This analysis was extended to examine the effects of ligand binding on thermal stability by measuring the unfolding curves at 290 nm of the complexes formed in K^+ solution, corresponding to the CD spectra shown in Figure 4a. Monitoring the thermal unfolding transition for h-Tel produces a sigmoidal unfolding curve with a transition mid-point Tm value of 72 ± 3°C (Figure 4c). All three ligands show significant effects in enhancing the stability of the quadruplex by shifting the Tm values to higher temperatures (∆Tm ~ 15-19°C compared to h-Tel without bound ligands) (Table 1).

[7] = test system: γH2AX in BJ-EHLT fibroblasts; assay: Immunofluorescence for γH2AX (DNA damage response); type: cell-based, human; conditions: 0.5 μM, 24 hrs
Experimental: as §2

[8] = test system: duplex (D) DNA hairpin, 5'-biotin-CGA3T3C(CT)2GA3T3CG (DNA, hairpin) CGAAATTTCCTCTGAAATTTCG; assay: surface plasmon resonance; conditions: 200 mM KCl; 10 mM HEPES, 3 mM EDTA, 0.01% P20, pH 7.4
[9] = test system: telomere aberrations in BJ-EHLT fibroblasts; assay: Telomere FISH on metaphase spreads; type: cell-based, human; conditions: 0.5 μM, 72 hrs
Experimental: For metaphase chromosome preparation cells were treated with demecolcine (Sigma, Milan, Italy) 0.1 mg/ml for 4 h and then harvested and washed in 75 mM KCl for 5 min at 37°C. After centrifugation cells were fixed in MeOH/acetic acid 3:1 overnight and then spread on slides. Hybridization with rhodamine-coupled PNA was performed as described. For each sample 20 metaphases per slice on triplicate were scored. Images of the metaphases were captured with a 100 × objective.

BJ-EHLT fibroblasts = assay: Proliferation assay, transformed fibroblasts; type: cell-based, human; conditions: 0.5 μM, culture day 2 to 8
Experimental: as §3, §4

[10] = test system: h-Tel quadruplex DNA 5′-d[AGGG(TTAGGG)3]-3′; assay: Surface plasmon resonance, quadruplex DNA; conditions: for Surface plasmon resonance K, Quadruplex (Q) DNA: 10 mM HEPES, 200 mM KCl, 3 mM EDTA, 0.01% P20, pH 7.4, equilibrium binding constant
Excerpt: Oligonucleotides 5′-biotin-d[AG3(T2AG3)3] quadruplex and 5′-biotin-CGA3T3C(CT)2GA3T3CG were purchased from Midland Certified Reagent Company (Midland, TX).
In the present work these measurements were repeated comparing ligand binding to the same h-Tel sequence but with a different duplex sequence 5′-d[CGA3T3C(CT)2GA3T3CG]-3′ as comparator.

hERG = target: T2, hERG (Homo sapiens, UniProt Q12809); assay: hERG tail current inhibition, patch clamp assay; type: cell-based; conditions: human, HEK293 cells (hERG study), 10 μM, HEK293 cells, read-out: hERG % inhib. (10 μM)
T2 construct: expressed in transfected cells; host or cells: HEK293
Experimental: as §1, with “Institute. All procedures involving animals and care were performed in compliance with our institutional animal care guidelines and with international directives (directive 2010/63/EU of the European parliament and of the council; Guide for the Care and Use of Laboratory Animals, United States National Research Council, 2011).” for “Institute.”

T1 sequence (P07550 whole entry): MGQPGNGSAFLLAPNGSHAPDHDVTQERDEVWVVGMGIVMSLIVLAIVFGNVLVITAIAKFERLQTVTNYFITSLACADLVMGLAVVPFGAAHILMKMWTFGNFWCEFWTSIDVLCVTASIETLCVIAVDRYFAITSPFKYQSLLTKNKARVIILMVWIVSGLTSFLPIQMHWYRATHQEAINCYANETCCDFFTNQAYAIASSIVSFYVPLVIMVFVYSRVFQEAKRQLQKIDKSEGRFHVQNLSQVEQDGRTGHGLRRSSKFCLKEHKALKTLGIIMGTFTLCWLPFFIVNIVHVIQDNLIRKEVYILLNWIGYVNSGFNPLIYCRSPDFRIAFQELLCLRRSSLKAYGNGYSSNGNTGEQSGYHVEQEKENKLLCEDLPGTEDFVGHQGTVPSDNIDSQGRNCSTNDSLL
T2 sequence (Q12809 whole entry): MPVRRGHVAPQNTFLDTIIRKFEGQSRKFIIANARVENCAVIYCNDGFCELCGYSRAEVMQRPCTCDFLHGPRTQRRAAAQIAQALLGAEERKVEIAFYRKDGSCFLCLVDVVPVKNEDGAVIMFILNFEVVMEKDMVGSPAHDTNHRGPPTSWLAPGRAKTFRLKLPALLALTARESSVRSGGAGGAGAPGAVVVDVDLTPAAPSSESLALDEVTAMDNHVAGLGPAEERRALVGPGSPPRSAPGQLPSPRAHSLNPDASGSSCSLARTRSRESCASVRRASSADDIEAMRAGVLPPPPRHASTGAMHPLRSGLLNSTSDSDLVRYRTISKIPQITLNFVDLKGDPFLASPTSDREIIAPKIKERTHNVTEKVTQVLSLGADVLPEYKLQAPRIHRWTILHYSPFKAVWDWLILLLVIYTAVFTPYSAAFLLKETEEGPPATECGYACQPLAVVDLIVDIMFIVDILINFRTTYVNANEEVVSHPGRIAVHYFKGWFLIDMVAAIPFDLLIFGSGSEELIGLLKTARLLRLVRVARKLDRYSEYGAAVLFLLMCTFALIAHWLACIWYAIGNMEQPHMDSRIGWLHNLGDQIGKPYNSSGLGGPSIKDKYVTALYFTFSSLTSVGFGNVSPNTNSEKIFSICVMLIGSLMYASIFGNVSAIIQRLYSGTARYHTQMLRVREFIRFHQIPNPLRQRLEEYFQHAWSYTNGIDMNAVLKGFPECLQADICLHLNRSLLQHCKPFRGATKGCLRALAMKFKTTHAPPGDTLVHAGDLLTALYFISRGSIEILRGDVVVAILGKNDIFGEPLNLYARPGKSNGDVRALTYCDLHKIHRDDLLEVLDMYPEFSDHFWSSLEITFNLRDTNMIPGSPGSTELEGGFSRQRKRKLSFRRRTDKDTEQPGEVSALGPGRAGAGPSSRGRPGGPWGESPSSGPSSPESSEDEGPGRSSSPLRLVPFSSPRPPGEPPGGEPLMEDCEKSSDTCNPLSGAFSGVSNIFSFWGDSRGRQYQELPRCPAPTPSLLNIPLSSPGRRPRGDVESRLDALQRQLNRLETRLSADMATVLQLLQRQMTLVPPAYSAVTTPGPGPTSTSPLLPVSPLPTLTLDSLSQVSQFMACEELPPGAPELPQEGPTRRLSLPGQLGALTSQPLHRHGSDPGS

melting point: > 250 °C (dec.)
Compound: CC[n+]1c2c3c(cc(C)cc3c3cc(F)ccc31)N(C)c1ccc(F)cc1-2 (as salt: sulfate) [Compound 8, 13-Ethyl-3,11-difluoro-6,8-dimethyl-8H-quino[4,3,2-kl]acridinium trifluoromethosulfate]

K [1]: 600000 M⁻¹
Compound: CC[n+]1c2c3c(cc(C)cc3c3cc(F)ccc31)N(C)c1ccc(F)cc1-2

binding [2]: yes
inhibition at 10 µM ([3]; 10 μM, inhibition of control specific binding, CHO cells, read-out: B2 adrenergic % inhib. (10 μM)): 24%
decay of β2-adrenergic receptor inhibition compared to 1 ([3]; comparing 1 to the compound): 75%
∆Tm [4]: 19 °C
K [1]: 1.5e+07 M⁻¹
K [8]: 400000 M⁻¹
Compound: CC(=O)Nc1ccc2c3cccc4c3c([n+](C)c2c1)-c1ccccc1N4C [Compound 2, 2-Acetylamino-8,13-dimethyl-8H-quino[4,3,2-kl]-acridinium iodide]
GI50 (NCI60 panel; Homo sapiens, NCI data, read-out: Mean GI50 value from the NCI60 panel): 12 µM
effect on cell proliferation in a panel of different histotype tumor cell lines (NCI60 panel; several human cancer cell lines): maintained an anti-proliferative effect
percentage of TIF-positive cells ([5]; cells with more than four γH2AX/TRF1 co-localizations): comparable levels with respect to 1
number of TIFs per nucleus ([5]; mean): ca. eight
inhibition of cell proliferation in normal telomerized fibroblasts (BJ-hTERT fibroblasts): did not induce inhibition of cell proliferation
CD study thermal stability ∆Tm ([6]; compared to h-Tel without bound ligand (Tm 70 ± 3)): 19 °C
CD study thermal stability Tm ([6]; h-Tel 4 μM with 3.5 mol.equiv. ligand, K+ solution, unfolding at 290 nm): 89 ± 3 °C
percentage of cells positive for γH2AX [7]: quite similar to compound 1
telomere aberrations (telomere doublets, sister telomere fusions) [9]: quantitatively similar to the lead compound
day of maximum effect on cell proliferation (BJ-EHLT fibroblasts): 6 days
Surface plasmon resonance K, Quadruplex (Q) DNA [10]: 1.5e+07 M⁻¹

Compound: CC[n+]1c2c3c(cc(C)cc3c3cc(F)ccc31)N(C)c1ccc(F)cc1-2 [Compound 8, 13-Ethyl-3,11-difluoro-6,8-dimethyl-8H-quino[4,3,2-kl]acridinium trifluoromethosulfate]
inhibition at 10 µM (hERG): 18%
Surface plasmon resonance K, Quadruplex (Q) DNA [10]: 600000 M⁻¹
fold reduction in on-target effect against h-Tel DNA sequence (SPR) relative to 1 ([10]; relative to compound 1): > 10 fold
